Data as given in publication PMC9841531, “Indole Derivatives as New Structural Class of Potent and Antiproliferative Inhibitors of Monocarboxylate Transporter 1 (MCT1; SLC16A1)” (Journal of Medicinal Chemistry, 2022).

Experiments:
A-549 cancer cells = assay: MTT-based cell viability assay, A-549; details: Homo sapiens, A549, 72 h, read-out: A-549 cancer cell toxicity GI50 ± SEM
From the text: MCT1-expressing cells have an extraordinary energy demand and rely on pyruvate metabolism, through either lactate conversion or pyruvate consumption. Inhibition of MCT1 blocks lactate and pyruvate influx into cancer cells, which prevents their processing in the TCA cycle. Over time, the viability of cells exposed to an MCT1 inhibitor is impaired due to pyruvate deprivation, which is compensated by upregulating glucose metabolism—leading to an overconsumption of glucose. To confirm the antiproliferative nature of the indole derivatives, we investigated the compounds toward the MCT1-expressing cell lines A-549[14],[15] and MCF-7.[16] Cancer cell viability was assessed via a 3-(4,5-dimethylthiazol-2-yl)-2,5-diphenyltetrazolium bromide (MTT) assay, as reported earlier.[43]
To determine the growth inhibitory potential of compounds 17–32, […] of each compound either at concentrations between 1 and 100 μM (A-549 or MCF-7) or at 10 and 50 μM (NIH/3T3) was pipetted into colorless flat-bottom 96-well microplates. Thereafter, 180 μL of a cell suspension (5000 cells/well) of either A-549, MCF-7, or NIH/3T3 cells was added and subsequently kept for 72 h at 37 °C under a 5% CO2-humidified atmosphere. The cell viability as well as the GI50 values were determined as described above.[43]

ABCB1 = ABCB1 (Homo sapiens, UniProt P08183); assay: calcein AM assay, ABCB1-expressing A2780/ADR cells; details: for IC50: read-out: ABCB1 calcein AM IC50 ± SEM, A2780/ADR cells, 22, 23 constrained to reference inhibitor 34; for ABCB1 inhibition: screening at 10 μM, inhibitor if 20% (+SEM) reached
ABCB1, sequence (P08183 whole entry): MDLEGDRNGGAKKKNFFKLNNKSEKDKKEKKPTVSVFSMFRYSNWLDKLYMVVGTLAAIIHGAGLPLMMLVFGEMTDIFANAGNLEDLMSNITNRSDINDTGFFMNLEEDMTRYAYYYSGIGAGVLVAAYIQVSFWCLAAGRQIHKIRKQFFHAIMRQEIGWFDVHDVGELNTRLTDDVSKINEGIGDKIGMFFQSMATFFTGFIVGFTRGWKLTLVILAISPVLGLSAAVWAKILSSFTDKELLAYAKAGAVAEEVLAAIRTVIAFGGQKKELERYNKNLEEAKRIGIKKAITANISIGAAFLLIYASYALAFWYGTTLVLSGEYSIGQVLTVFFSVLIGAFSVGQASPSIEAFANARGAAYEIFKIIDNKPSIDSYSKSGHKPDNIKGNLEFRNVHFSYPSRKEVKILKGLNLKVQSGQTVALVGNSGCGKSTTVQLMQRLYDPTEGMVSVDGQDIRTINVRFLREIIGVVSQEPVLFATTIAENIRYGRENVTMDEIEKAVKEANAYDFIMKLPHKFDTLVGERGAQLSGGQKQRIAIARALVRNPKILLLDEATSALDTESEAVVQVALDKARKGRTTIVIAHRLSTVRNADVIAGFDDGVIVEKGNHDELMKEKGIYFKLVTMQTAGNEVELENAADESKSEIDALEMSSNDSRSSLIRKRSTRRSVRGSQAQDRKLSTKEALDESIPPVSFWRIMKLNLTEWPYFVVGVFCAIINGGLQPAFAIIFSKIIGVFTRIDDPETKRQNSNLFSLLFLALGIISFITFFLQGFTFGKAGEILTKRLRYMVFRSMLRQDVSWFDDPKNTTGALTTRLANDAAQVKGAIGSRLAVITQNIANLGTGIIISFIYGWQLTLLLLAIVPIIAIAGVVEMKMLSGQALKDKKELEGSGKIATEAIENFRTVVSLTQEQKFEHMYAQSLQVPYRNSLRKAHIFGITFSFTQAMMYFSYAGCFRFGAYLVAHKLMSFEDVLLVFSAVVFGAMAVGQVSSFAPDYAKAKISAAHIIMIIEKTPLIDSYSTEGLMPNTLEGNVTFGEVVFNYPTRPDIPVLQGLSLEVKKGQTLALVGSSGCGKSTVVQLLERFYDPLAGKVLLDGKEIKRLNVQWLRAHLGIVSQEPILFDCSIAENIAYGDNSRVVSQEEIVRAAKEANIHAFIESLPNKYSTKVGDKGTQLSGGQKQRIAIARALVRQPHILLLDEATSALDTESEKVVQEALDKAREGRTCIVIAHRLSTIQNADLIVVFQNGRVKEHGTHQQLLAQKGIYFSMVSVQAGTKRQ
From the text: (§1) To provide a detailed picture of the pharmacological profile of the indole derivatives, we investigated their modulatory nature on the most prominent ABC transporters ABCB1 (P-glycoprotein, P-gp), ABCC1, (multidrug resistance-associated protein 1, MRP1), and ABCG2 (breast cancer resistance protein, BCRP). Here, we conducted calcein AM (ABCB1),[2],[52]−[59] daunorubicin (ABCC1),[52],[58]−[60] and pheophorbide A (ABCG2)[2],[52]−[60] assays using ABCB1-expressing A2780/ADR, ABCC1-expressing H69AR, and ABCG2-expressing MDCK II BCRP cells, respectively.
(§2) The calcein AM (ABCB1),[2],[52]−[59] daunorubicin (ABCB1[52],[60] and ABCC1[52],[58]−[60]), and pheophorbide A (ABCG2)[2],[52]−[60] assays were conducted as reported earlier. […] The data was processed using GraphPad Prism version 8.4.0, and IC50 values were determined, applying three- or four-parameter logistic equations, whatever was statistically preferred.

ABCB1 (P-gp) = ABCB1 (P-gp) (Homo sapiens, UniProt P08183); assay: daunorubicin assay, ABCB1-expressing A2780/ADR cells; type: cell-based; details: human, ABCB1-expressing A2780/ADR cells, probe daunorubicin (3 μM final); relative to reference inhibitor 34 = 100%; read-out: maximal inhibition (Imax), ABCB1 daunorubicin
A-549 cells = assay: cell cycle distribution analysis, PI flow cytometry; type: cell-based; details: 5 μM, 24 h
Description: The antineoplastic agent 33 (5 μM) was used as a reference. […] Compound 24 caused a disruption of the cell cycle of A-549 cancer cells, indicated by a shift from the predominant G0/G1 phase (Figure 8A) to the apoptotic sub-G1 phase as well as the G2/M phase (Figure 8B). A similar G2/M arrest could be observed for reference compound 33 (Figure 8C); however, MCT1 inhibitor 24 led to a larger fraction of cells into the sub-G1 phase, indicating induced apoptosis. This experiment discovered that compound 24 inhibits cell proliferation, causing cell cycle arrest and, eventually, apoptosis. To confirm our findings, we conducted an apoptosis assay using compound 24.
A standard PI staining procedure was used as described earlier[44]−[46] to determine the effect of compounds 24 and 33 on cell cycle progression, followed by flow cytometry analysis (FACS Aria SORP and FACS Aria Fusion, BD Biosciences, Franklin Lakes, NJ). In brief, A-549 cells were seeded onto a 6-well plate (250,000 cells/well) and incubated for 24 h at 37 °C under a 5% CO2-humidified atmosphere before being observed under a microscope. The cells were treated with compound 24 (5 μM) or 33 (5 μM) and further incubated for 24 h at 37 °C under a 5% CO2-humidified atmosphere. Then, the cells were harvested and washed twice with cold PBS (Genetix Biotech Asia, New Delhi, India) before being fixed overnight in ice-cold 70% (v/v) ethanol at 4 °C. The cells were again washed two times with PBS and subsequently resuspended with RNase (100 μg/mL; HiMedia, Mumbai, India) and their DNA was stained with PI (40 μg/mL; Sigma-Aldrich, Mumbai, India) before being incubated in the dark for 10 min. The DNA content was measured at the Indian Institute of Technology Bombay (IITB, Mumbai, India) by applying flow cytometry.

[1] = tested on: ABCB1-expressing A2780/ADR cells; assay: MTT-based efficacy (MDR-reversal) assay, 33 in combination with test compound, A2780/ADR; type: cell-based; details: for sensitization of ABCB1-expressing A2780/ADR cells against 33: 5 μM; for EC50: from resistance factors of 33 (A2780/ADR vs A2780) against compound concentration, read-out: half-maximal reversal concentration (EC50)
Description: This sensitization is indicated by a shift of the concentration-effect curve of compound 33 from the right (=high concentrations of 33 needed to induce A2780/ADR cell death) to the left (=lower concentrations of 33 needed to induce A2780/ADR cell death). The concentration-effect curve of compound 33 in combination with 5 μM of either compound 24 or 30 resembles the concentration-effect curve of the sensitive cell line A2780. […] Thus, their potentiating effect with respect to the antiproliferative agent 33 against ABCB1-expressing A2780/ADR cells is due to the inhibition of ABCB1. Therefore, compounds 24 and 30 were dually effective against MCT1- and ABCB1-expressing cells (Table 5).
An MDR-reversal assay[2],[55]−[59] was used to investigate the ability to reverse ABCB1-mediated MDR in A2780/ADR cells toward the cytotoxic ABCB1 substrate 33. […] A dilution series of 33 at concentrations between 0.1 μM and 100 μM was generated, and 20 μL of each concentration was transferred onto the plates (final concentration: 0.01–10 μM). The plates were incubated for 72 h at 37 °C and a 5% CO2-humidified atmosphere, before subsequent processing with the regular MTT assay as described above. The observed effects of compounds 24 and 30 were compared to the effect of 33 alone on A2780/ADR cells as well as its sensitive counterpart A2780 (∼10,000 cells/well).

ABCC1 = ABCC1 (Homo sapiens, UniProt P33527); assay: daunorubicin assay, ABCC1-expressing H69AR cells; details: screening at 10 μM, inhibitor if 20% (+SEM) reached
ABCC1, sequence (P33527 whole entry): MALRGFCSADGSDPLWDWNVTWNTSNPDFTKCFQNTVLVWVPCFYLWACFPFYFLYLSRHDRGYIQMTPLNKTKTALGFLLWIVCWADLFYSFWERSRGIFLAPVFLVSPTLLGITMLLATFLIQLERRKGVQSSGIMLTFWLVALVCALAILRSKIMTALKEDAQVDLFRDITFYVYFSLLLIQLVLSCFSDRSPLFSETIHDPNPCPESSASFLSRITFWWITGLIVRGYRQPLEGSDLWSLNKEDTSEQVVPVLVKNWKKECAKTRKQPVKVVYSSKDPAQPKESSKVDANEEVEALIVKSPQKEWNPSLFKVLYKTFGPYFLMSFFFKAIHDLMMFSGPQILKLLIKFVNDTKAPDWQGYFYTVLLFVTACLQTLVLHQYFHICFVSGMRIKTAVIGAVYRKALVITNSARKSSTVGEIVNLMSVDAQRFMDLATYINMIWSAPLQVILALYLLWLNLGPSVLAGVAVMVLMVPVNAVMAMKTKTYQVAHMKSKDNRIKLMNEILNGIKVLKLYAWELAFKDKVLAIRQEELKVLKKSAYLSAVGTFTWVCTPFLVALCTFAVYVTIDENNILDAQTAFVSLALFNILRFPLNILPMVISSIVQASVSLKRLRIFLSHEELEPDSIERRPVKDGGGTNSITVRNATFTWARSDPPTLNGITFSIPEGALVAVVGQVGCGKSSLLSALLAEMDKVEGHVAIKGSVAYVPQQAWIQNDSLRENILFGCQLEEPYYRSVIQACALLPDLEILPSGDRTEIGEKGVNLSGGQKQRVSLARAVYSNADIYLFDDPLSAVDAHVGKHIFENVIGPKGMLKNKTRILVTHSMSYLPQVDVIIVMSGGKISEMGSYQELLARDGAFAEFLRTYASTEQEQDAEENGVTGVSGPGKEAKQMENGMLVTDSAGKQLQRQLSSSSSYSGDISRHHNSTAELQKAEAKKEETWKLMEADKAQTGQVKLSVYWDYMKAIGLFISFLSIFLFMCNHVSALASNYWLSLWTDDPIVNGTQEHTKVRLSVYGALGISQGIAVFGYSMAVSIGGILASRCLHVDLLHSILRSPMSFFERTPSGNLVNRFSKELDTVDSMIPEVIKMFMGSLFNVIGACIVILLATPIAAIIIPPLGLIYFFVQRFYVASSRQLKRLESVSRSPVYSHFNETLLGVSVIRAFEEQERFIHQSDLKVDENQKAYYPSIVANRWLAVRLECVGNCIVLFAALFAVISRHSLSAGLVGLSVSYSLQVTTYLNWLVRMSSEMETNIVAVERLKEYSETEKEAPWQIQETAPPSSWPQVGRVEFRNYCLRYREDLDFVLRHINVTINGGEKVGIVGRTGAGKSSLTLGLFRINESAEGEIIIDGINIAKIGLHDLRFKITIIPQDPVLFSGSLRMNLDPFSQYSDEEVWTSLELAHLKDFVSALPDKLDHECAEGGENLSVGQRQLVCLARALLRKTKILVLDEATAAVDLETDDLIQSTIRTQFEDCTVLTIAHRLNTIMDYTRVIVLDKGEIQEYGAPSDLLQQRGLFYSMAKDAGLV
From the text: as §1, §2

[2] = molecular target: ABCB1 (P-glycoprotein, P-gp) (Homo sapiens, UniProt P08183); assay: daunorubicin assay, ABCB1-expressing A2780/ADR cells; type: cell-based; details: human, ABCB1-expressing A2780/ADR cells, probe daunorubicin (3 μM final); relative to reference inhibitor 34 = 100%; read-out: maximal inhibition (Imax), ABCB1 daunorubicin
ABCB1 (P-glycoprotein, P-gp), sequence (P08183 whole entry): as the sequence (P08183 whole entry) above

Structure (SMILES) | GI50 (A-549 cancer cells) [µM] | IC50 (ABCB1) [µM] | ABCB1 inhibition (ABCB1) | inhibition at 180 min (ABCB1 (P-gp)) [%] | cells in G0/G1 phase (A-549 cells) [%] | cells in G2/M phase (A-549 cells) [%] | cells in S phase (A-549 cells) [%] | cells in Sub-G1 phase (A-549 cells) [%] | sensitization of ABCB1-expressing A2780/ADR cells against 33 [1] | EC50 [1] [µM] | ABCC1 inhibition (ABCC1) | inhibition at 180 min [2] [%]
COC(=O)/C(C#N)=C/c1cn(CC(=O)Nc2ccc(OC)cc2)c2ccccc12 [Compound 24, Methyl-2-cyano-3-(1-(2-((4-methoxyphenyl)amino)-2-oxoethyl)-1H-indol-3-yl) Acrylate] | 20 ± 0.6 | 0.983 ± 0.135 | X (Compounds were considered as inhibitors if they reached 20% (+SEM) inhibition compared to the reference inhibitors 33–35; X = fulfilled) | 84 | 38.1 | 22.3 | 18.0 | 20.6 | completely sensitized | 0.793 ± 0.039 | X (Compounds were considered as inhibitors if they reached 20% (+SEM) inhibition compared to the reference inhibitors 33–35; X = fulfilled) | –
COC(=O)/C(C#N)=C/c1cn(CC(=O)Nc2ccc(C)cn2)c2ccccc12 [Compound 30, Methyl-2-cyano-3-(1-(2-((5-methylpyridin-2-yl)amino)-2-oxoethyl)-1H-indol-3-yl) Acrylate] | 19.3 ± 0.3 | 1.51 ± 0.08 | X (Compounds were considered as inhibitors if they reached 20% (+SEM) inhibition compared to the reference inhibitors 33–35; X = fulfilled) | – | – | – | – | – | completely sensitized | 1.22 ± 0.01 | X (Compounds were considered as inhibitors if they reached 20% (+SEM) inhibition compared to the reference inhibitors 33–35; X = fulfilled) | 93.3
